Assay results taken from US20250099420A1, “SMALL MOLECULE MODULATORS OF GPR139 COMPLEX” (University of Florida Research Foundation, Incorporated, priority 2022, published 2025).

Legend:
GPR139 [1] = biological target: T1, GPR139 (Homo sapiens, UniProt Q6DWJ6); assay: GPR139 Antagonist titration assay (calcium detection, HEK-GPR139 cells, vs EC80 of S-JNJ-63533054); conditions: for GPR139 Antagonist Activity Averaged Max % Response (±St. Dev.): activity relative to known control; for GPR139 Antagonist Activity Lipophilic Efficiency (logD): based on logD; for GPR139 Antagonist Activity Lipophilic Efficiency (logP): based on logP; for GPR139 Antagonist Activity Hill Slope: fitted dose-response curve
T1 sequence (Q6DWJ6 1-353): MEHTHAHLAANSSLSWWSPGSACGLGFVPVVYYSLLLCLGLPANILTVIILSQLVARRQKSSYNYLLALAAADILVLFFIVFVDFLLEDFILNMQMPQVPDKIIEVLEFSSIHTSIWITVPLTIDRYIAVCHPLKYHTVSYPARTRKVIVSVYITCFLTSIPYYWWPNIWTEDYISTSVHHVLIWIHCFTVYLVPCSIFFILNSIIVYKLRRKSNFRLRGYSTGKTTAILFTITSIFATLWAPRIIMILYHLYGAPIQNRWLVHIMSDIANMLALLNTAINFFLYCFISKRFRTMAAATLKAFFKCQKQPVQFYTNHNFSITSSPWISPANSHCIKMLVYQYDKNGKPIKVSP

parental HEK cells = assay: HEK parental Antagonist Counterscreen Assay (non-transfected cells, acetylcholine control); format: cell-based; conditions: for EC50: Homo sapiens, HEK293, acetylcholine as control, scientific notation, molarity
GPR139 [2] = biological target: T1, GPR139; assay: GPR139 Agonist titration / agonist counterscreen assay (calcium detection, HEK-GPR139 cells); format: cell-based; set-up: expressed in transfected cells; host or cells: HEK Aequorin cells, Maxcyte transient transfection; conditions: agonist counterscreen of the antagonists; for EC50: scientific notation, molarity, read-out: GRP139 Agonist activity EC50
Method: GPR activity was assessed using a calcium detection assay. […] Negative control samples were treated with DMSO. […] Intracellular calcium was measured using Calcium 5.

Row | SMILES | EC50 (GPR139 [1]) | GPR139 Antagonist Activity Ligand Efficiency (GPR139 [1]) | GPR139 Antagonist Activity Averaged Max % Response (±St. Dev.) (GPR139 [1]) | GPR139 Antagonist Activity Lipophilic Efficiency (logD) (GPR139 [1]) | GPR139 Antagonist Activity Lipophilic Efficiency (logP) (GPR139 [1]) | GPR139 Antagonist Activity Hill Slope (GPR139 [1]) | HEK antagonist activity Averaged Max % Response (±St. Dev.) (parental HEK cells) | EC50 (parental HEK cells) | GRP139 Agonist activity Averaged Max % Response (±St. Dev.) (GPR139 [2]) | EC50 (GPR139 [2])
1 | COc1cccc(OC)c1C(=O)Oc1ccc2c(=O)c(-c3ccc(Cl)cc3)c(C(F)(F)F)oc2c1 [SR-01000471218] | 1.1 µM | 0.24 | 90.79 ± 3.84% | −130.5E−3 | −130.5E−3 | 1.41 | 69.47 ± 1.93% | 10.1 µM | 19.55 ± 6.15% | > 10.5 µM
2 | CCn1cc(Cl)c(C(=O)OCC23CCC4c5ccccc5OC(C)(CC2C)C4C3C)n1 (stereo not drawn) [SR-01000479575] | – | 0.24 | 58.09 ± 4.56% | 0.55 | 0.55 | 2.37 | 11.60 ± 7.12% | > 7.6 µM | −2.2E+0 ± 2.25 ^ % | –
3 | Cc1cc(C(F)(F)F)nc(SCC(=O)Nc2cccc(C(F)(F)F)c2)c1C#N [SR-01000507831] | > 13.9 µM | 0.24 | 49.37 ± 5.06% | −233.9E−3 | −233.9E−3 | – | 11.97 ± 1.54% | > 13.9 µM | 2.74 ± 8.83% | > 13.9 µM
4 | CCCCCCOC(=S)SCC(=O)Nc1ccccc1 [SR-01000508699] | 2.7 µM | 0.39 | 85.61 ± 2.70% | 0.57 | 0.57 | 1.30 | 23.85 ± 9.06% | > 12 µM | 25.84 ± 3.55% | > 12 µM
5 | Cc1cc(C)c(NC(=O)c2ccc(Br)cc2)c(C)c1NC(=O)c1ccc(Br)cc1 [SR-01000512383] | 2.2 µM | 0.27 | 58.56 ± 7.31% | −1.6E+0 | −1.6E+0 | 1.46 | 33.99 ± 7.44% | > 8.9 µM | 6.60 ± 4.93% | > 8.9 µM
6 | Brc1ccc2[nH]cc(-c3nnc4ccc5ccccc5n34)c2c1 [SR-01000524226] | 10.2 µM | 0.30 | 60.57 ± 14.37% | 1.28 | 1.28 | 1.32 | −2.2E+0 ± 7.28 ^ % | > 13.3 µM | −11.2 ± 4.96% | > 13.3 µM
7 | COc1ccc(C(C(=O)NC(C)c2ccccc2)(c2ccccc2)c2ccccc2)cc1 (stereo not drawn) [SR-01000529482] | 7.9 µM | 0.22 | 56.80 ± 4.90% | −1.1E+0 | −1.1E+0 | 0.94 | 16.45 ± 6.46% | > 10.8 µM | 3.89 ± 5.42% | > 10.8 µM
8 | O=C(CSc1nc(-c2ccccc2)cn1-c1ccc(F)cc1)Nc1ccccc1 [SR-01000555413] | 5 µM | 0.26 | 77.15 ± 0.74% | −521.6E−3 | −521.7E−3 | 1.24 | −6.1E+0 ± 7.39 ^ % | > 11.3 µM | 5.85 ± 3.71% | > 11.3 µM
9 | Cc1ccc(-n2cc(-c3ccccc3)nc2OCC(=O)Nc2ccccc2C)cc1 [SR-01000555462] | 5.2 µM | 0.25 | 71.75 ± 3.35% | −1.4E+0 | −1.4E+0 | 0.81 | 9.21 ± 12.02% | > 11 µM | 1.48 ± 6.53% | > 11 µM
